Reference: patent US20100184813A1, “CHEMICAL COMPOUNDS 553” (AstraZeneca AB, priority 2008, published 2010)

Molecular target: T1, human DGAT1 (Homo sapiens, UniProt O75907)
T1 construct: made in house; host or cells: Sf9 insect cells (baculovirus); membrane fraction
T1 sequence (O75907 1-488): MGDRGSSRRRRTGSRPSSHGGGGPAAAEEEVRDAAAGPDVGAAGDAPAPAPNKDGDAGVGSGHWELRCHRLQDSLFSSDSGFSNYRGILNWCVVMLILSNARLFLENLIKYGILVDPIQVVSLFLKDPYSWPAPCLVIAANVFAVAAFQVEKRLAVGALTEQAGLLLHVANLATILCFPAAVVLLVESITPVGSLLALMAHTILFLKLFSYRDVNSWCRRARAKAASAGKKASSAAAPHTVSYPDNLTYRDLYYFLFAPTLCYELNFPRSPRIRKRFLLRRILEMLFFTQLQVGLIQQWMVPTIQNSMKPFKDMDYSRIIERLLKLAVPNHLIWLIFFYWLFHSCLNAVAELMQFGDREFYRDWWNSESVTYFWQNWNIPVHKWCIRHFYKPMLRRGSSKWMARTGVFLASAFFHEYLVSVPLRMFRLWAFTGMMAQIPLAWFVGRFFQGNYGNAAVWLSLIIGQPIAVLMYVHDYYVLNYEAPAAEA
Assay: Human Enzyme Assay (DGAT1 inhibition, 14C oleoyl coenzyme A, insect cell membranes)
Format: biochemical
Conditions: human DGAT1 expressed in sf9 insect cell membranes; usually a mean of 2 measurements
Description: See, for example, International Application WO 2005/044250.
The in vitro assay to identify DGAT1 inhibitors uses human DGAT1 expressed in insect cell membranes as the enzyme source (Proc. Natl. Acad. Sci. 1998, 95, 13018-13023). Briefly, sf9 cells were infected with recombinant baculovirus containing human DGAT1 coding sequences and harvested after 48 h. Cells were lysed by sonication and membranes isolated by centrifuging at 28000 rpm for 1 h at 4° C. on a 41% sucrose gradient. The membrane fraction at the interphase was collected, washed, and stored in liquid nitrogen.
DGAT1 activity was assayed by a modification of the method described by Coleman (Methods in Enzymology 1992, 209, 98-102). Compound at 0.0000256 μM-33 μM (final conc.) (typically 10 μM) was incubated with 4 μg/ml (final conc) membrane protein, 5 mM MgCl2, and 100 μM 1,2 dioleoyl-sn-glycerol (dissolved in acetone with a final assay conc. of acetone of 10%) in a total assay volume of 200 μl in a 96 well plate. The reaction was started by adding ^14C oleoyl coenzyme A (30 μM final concentration) and incubated at room temperature for 30 minutes. The reaction was stopped by adding 200 μl 2-propanol:heptane 7:1. Radioactive triolein product was separated into the organic phase by adding 300 μl heptane and 100 μl 0.1 M carbonate buffer pH 9.5. DGAT1 activity was quantified by counting aliquots of the upper heptane layer by liquid scintillography.
Stated figures are usually a mean of a number of measurements (usually 2 measurements) according to standard practice.

SMILES	IC50 [nM]
O=C(Nc1ccc([C@H]2CC[C@H](C(=O)O)CC2)cc1F)c1nnc(Nc2ccc(OC(F)F)cc2)o1 [Example 2]	28
O=C(Nc1ccc([C@H]2CC[C@H](C(=O)O)CC2)cc1F)c1nnc(Nc2ccc(C(F)(F)F)cc2)o1 [Example 1, (1r,4r)-4-(3-Fluoro-4-(5-(4-(trifluoromethyl)phenylamino)-1,3,4-oxadiazole-2-carboxamido)phenyl)cyclohexanecarboxylic acid]	16
O=C(Nc1ccc([C@H]2CC[C@H](C(=O)O)CC2)cc1F)c1nnc(Nc2cccc(Cl)c2)o1 [Example 4, (1r,4r)-4-(4-(5-(3-Chlorophenylamino)-1,3,4-oxadiazole-2-carboxamido)-3-fluorophenyl)cyclohexanecarboxylic acid]	12
O=C(Nc1ccc([C@H]2CC[C@H](C(=O)O)CC2)cc1F)c1nnc(Nc2ccc(OC(F)(F)F)cc2)o1 [Example 3, (1r,4r)-4-(3-Fluoro-4-(5-(4-(trifluoromethoxyl)phenylamino)-1,3,4-oxadiazole-2-carboxamido)phenyl)cyclohexanecarboxylic acid]	11

These reach a lower IC50. Values come first.

IC50 [nM]	SMILES
9.2	O=C(Nc1ccc([C@H]2CC[C@@H](C(=O)O)CC2)cc1F)c1nnc(Nc2ccc(F)c(F)c2)o1 [Example 7, (1s,4s)-4-(4-(5-(3,4-Difluorophenylamino)-1,3,4-oxadiazole-2-carboxamido)-3-fluorophenyl)cyclohexanecarboxylic acid]
5.5	O=C(Nc1ccc([C@H]2CC[C@H](C(=O)O)CC2)cc1F)c1nnc(Nc2ccc(F)c(F)c2)o1 [Example 5, (1r,4r)-4-(4-(5-(3,4-Difluorophenylamino)-1,3,4-oxadiazole-2-carboxamido)-3-fluorophenyl)cyclohexanecarboxylic acid]
4.7	O=C(Nc1ccc([C@H]2CC[C@@H](C(=O)O)CC2)cc1F)c1nnc(Nc2cc(F)c(F)cc2F)o1 [Example 8, (1s,4s)-4-(3-Fluoro-4-(5-(2,4,5-trifluorophenylamino)-1,3,4-oxadiazole-2-carboxamido)phenyl)cyclohexanecarboxylic acid]
3.7	O=C(Nc1ccc([C@H]2CC[C@H](C(=O)O)CC2)cc1F)c1nnc(Nc2cc(F)c(F)cc2F)o1 [Example 6, (1r,4r)-4-(3-Fluoro-4-(5-(2,4,5-trifluorophenylamino)-1,3,4-oxadiazole-2-carboxamido)phenyl)cyclohexanecarboxylic acid]
